# Experiments:
# male Swiss Albino mice [1] = assay: Treadmill endurance test (Example 2)
# Protocol: Thirty-six 8-week-old male Swiss Albino mice were housed in an animal room at a constant temperature (22±3° C.) and humidity (30%-70%) under a 12:12 h light-dark cycle with standard laboratory diet (Purina 5L79, Rat and Mouse 18% protein; PMI Nutrition International, Brentwood, MO, USA). Distilled water was provided ad libitum. All animal experiments were reviewed and approved by the Institutional Animal Ethical Committee (IAEC) of Radiant Research Services Pvt. Ltd (Bangalore, India). All research was conducted in accordance with the guidelines of the committee for the purpose of control and supervision of experiments on animals.
# The dose administered to the mice was calculated using US Food and Drug Administration for human equivalence doses (HED), assuming a human weight of 60 kg. […] 0.5% Carboxy Methyl Cellulose sodium was used as vehicle and the test item formulations were prepared daily. Dosing was conducted via oral gavage using disposable polypropylene syringes with sterilized stainless steel gavage tubes. The food intake and water consumption were monitored daily, and BW was recorded weekly. The last dose on day 28 was given 1 hour prior to testing.
# On 28th day of each respective treatment, all animals were subjected to a muscle endurance test. Muscle endurance was accomplished on a motorized treadmill at a low to moderate intensity of 5-50 cm/sec as maximal running speed, an incline of ten degrees and a shock intensity of 0.2 mA, with the belt speed being increased by 5 cm/sec every two minutes until it reaches 50 cm/sec. Animals were subjected to the treadmill test until exhaustion. Distance traveled (cm) was measured as a marker of exercise performance, energy, and endurance.
# acetylcholine (Ach) [2] = assay: Acetylcholine concentration (Example 3); format: in vivo, rats; settings: for acetylcholine (Ach) concentration: oral 14 days
# Protocol: (§1) Distilled water was provided ad libitum. […] Ltd (Bangalore, India).
# (§2) 0.5% Carboxy Methyl Cellulose sodium was used as vehicle and the test item formulations were prepared daily. […] The last dose on day 14 was given 1 hour prior to testing.
# [3] = system: brain derived neuro factor, BDNF; assay: BDNF level, neuroplasticity (second Example 4); format: in vivo, rats; settings: for BDNF: oral 14 days
# Protocol: as §1
# (§3) The following HED were used in this study: 50 mg paraxanthine, (ENFINITY™, Ingenious Ingredients, L.P Lewisville, TX, USA; rat dose: 5.141 mg/kg bw/day); 25 mg L-Theanine (rat dose: 2.570 mg/kg bw), and 50 mg paraxanthine plus 25 mg L-Theanine. 0.5% Carboxy Methyl Cellulose sodium was used as vehicle and the test item formulations were prepared daily. […] The last dose on day 14 was given 1 hour prior to testing.
# male Swiss Albino mice [4] = assay: Treadmill endurance test (first Example 4, L-Theanine); format: in vivo
# Protocol: as §1
# The following HED were used in this study: 50 mg paraxanthine, (ENFINITY™ Ingenious Ingredients, L.P Lewisville, TX, USA; mouse dose: 10.275 mg/kg bw/day); 25 mg L-Theanine (mouse dose: 5.137 mg/kg bw), and 50 mg paraxanthine plus 25 mg L-Theanine. 0.5% Carboxy Methyl Cellulose sodium was used as vehicle and the test item formulations were prepared daily.
# During the treatment period, exercise training was completed using a motorized treadmill (Exer 3/6, Columbus Instruments international, OH, USA) at a moderate intensity of 20 cm/sec as maximal running speed, an incline of ten degrees and a shock intensity of 0.2 mA, for ten minutes. The speed of the treadmill was manually adjusted by increasing the belt speed by 5 cm/sec every two minutes throughout the total duration of ten minutes. All animals were adapted to this procedure daily 60 minutes after dosing for five days in a week during the treatment period. 1.3. Treadmill Endurance Test
# Muscle endurance was accomplished on a motorized treadmill at a low to moderate intensity of 5-50 cm/sec as maximal running speed, an incline of ten degrees and a shock intensity of 0.2 mA, with the belt speed being increased by 5 cm/sec every two minutes until it reaches 50 cm/sec. Animals were subjected to the treadmill test until exhaustion.
# dopamine (dopa) [5] = assay: Dopamine concentration (Example 3); format: in vivo, rats; settings: for dopamine (dopa) concentration: oral 14 days
# Protocol: as §1, §2
# [6] = system: male Swiss Albino Wistar rats; assay: Walter Morris Maze test (second Example 4, L-Theanine); format: in vivo; settings: for escape latency: oral 14 days
# Protocol: as §1, §3
# The Walter Morris Maze test consisted of a circular pool in a room with geometric shapes on the wall serving as spatial cues. The pool, which is 70 cm in diameter and painted with black color, filled with 13 cm depth of 25±1° C. water. A platform (6 cm diameter) was placed into one quadrant of the pool and submerged 1 cm below the water surface. For the training, all rats were trained to locate the submerged platform in a constant location. The training day consisted of four trials. During training, a rat started at one of four starting points and allowed to swim until it located the platform or until 60 seconds had elapsed. The rat was allowed to remain on the platform for 15 seconds before being dried off and later was transferred to a holding cage. […] The animals were continuously trained 4 times at 4 starting points continued daily for 4 days, the main trial was conducted on the 15th & 16th day and the latency of escaping onto the platform was recorded.
# glutathione (GSH) [7] = assay: Glutathione level (second Example 4); format: in vivo, rats; settings: for glutathione (GSH) level: oral 14 days
# Protocol: as §1, §3
# dopamine (dopa) [8] = assay: Dopamine concentration (second Example 4); format: in vivo, rats; settings: for dopamine (dopa) concentration: oral 14 days
# Protocol: as §1, §3
# [9] = system: male Swiss Albino Wistar rats; assay: Walter Morris Maze test (Example 3); format: in vivo; settings: for escape latency: oral 14 days
# Protocol: Distilled water was provided ad libitum. […] Ltd (Bangalore, India). […] The last dose on day 14 was given 1 hour prior to testing. The Walter Morris Maze test consisted of a circular pool in a room with geometric shapes on the wall serving as spatial cues. The pool, which is 70 cm in diameter and painted with black color, filled with 13 cm depth of 25±1° C. water. A platform (6 cm diameter) was placed into one quadrant of the pool and submerged 1 cm below the water surface. For the training, all rats were trained to locate the submerged platform in constant location. The training day consisted of four trials. […] The rat was allowed to remain on the platform for 15 seconds before being dried off and later was transferred to a holding cage.
# acetylcholine (Ach) [10] = assay: Acetylcholine concentration (second Example 4); format: in vivo, rats; settings: for acetylcholine (Ach) concentration: oral 14 days
# Protocol: as §1, §3
# glutathione (GSH) [11] = assay: Glutathione level (Example 3); format: in vivo, rats; settings: for glutathione (GSH) level: oral 14 days
# Protocol: as §1, §2
# [12] = system: brain derived neuro factor, BDNF; assay: BDNF level, neuroplasticity (Example 3); format: in vivo, rats; settings: for BDNF: oral 14 days
# Protocol: as §1, §2
smiles,measurement,setting,value
"Cn1c(=O)[nH]c2ncn(C)c2c1=O [paraxanthine, 1,7-Dimethyl-3H-purine-2,6-dione]",increase of distance travelled compared to alpha-GPC,male Swiss Albino mice [1]; compared to alpha-GPC alone,4.4%
same,increase of distance travelled compared to control,male Swiss Albino mice [1]; compared to control (placebo),81%
same,increase of distance travelled compared to theobromine,male Swiss Albino mice [1]; compared to theobromine,6.3%
same,increase of distance travelled compared to theophylline,male Swiss Albino mice [1]; compared to theophylline,9.9%
same,"exercise performance, energy, and endurance (in words)",male Swiss Albino mice [1]; oral 28 days,"significant improvements of exercise performance, energy, and endurance"
same,acetylcholine (Ach) concentration,acetylcholine (Ach) [2]; old rats,59.78±2.61 U/mL
same,increase in Ach compared to alpha-GPC,acetylcholine (Ach) [2]; old rats,5.1%
same,increase in Ach compared to placebo,acetylcholine (Ach) [2]; old rats,23.2%
same,increase in Ach compared to theobromine,acetylcholine (Ach) [2]; old rats,5.5%
same,increase in Ach compared to theophylline,acetylcholine (Ach) [2]; old rats,8.0%
same,acetylcholine (Ach) concentration,acetylcholine (Ach) [2]; young rats,66.83±2.38 U/mL
same,increase in Ach compared to alpha-GPC,acetylcholine (Ach) [2]; young rats,1.4%
same,increase in Ach compared to placebo,acetylcholine (Ach) [2]; young rats,23.9%
same,increase in Ach compared to theobromine,acetylcholine (Ach) [2]; young rats,4.0%
same,increase in Ach compared to theophylline,acetylcholine (Ach) [2]; young rats,4.6%
same,BDNF,[3]; old rats,842.7 ± 6.26 pg/mL
same,increase in BDNF compared to L-Theanine,[3]; old rats,6.8%
same,increase in BDNF compared to placebo,[3]; old rats,18.1%
same,BDNF,[3]; young rats,917 ± 5.21 pg/mL
same,increase in BDNF compared to L-Theanine,[3]; young rats,5.9%
same,increase in BDNF compared to placebo,[3]; young rats,22.7%
same,increase of distance travelled compared to L-Theanine,male Swiss Albino mice [4]; compared to L-Theanine alone,4.9%
same,increase of distance travelled compared to control,male Swiss Albino mice [4]; compared to control (placebo),81%
same,"exercise performance, energy, and endurance (in words)",male Swiss Albino mice [4]; oral 28 days,"significant improvements of exercise performance, energy, and endurance"
same,distance travelled during treadmill exercise,"male Swiss Albino mice [4]; oral once daily 28 days, HED 50 mg paraxanthine, 25 mg L-Theanine",309.50±6.77 m
same,dopamine (dopa) concentration,dopamine (dopa) [5]; old rats,516.85 ± 4.43 ng/L
same,increase in dopa compared to alpha-GPC,dopamine (dopa) [5]; old rats,2.1%
same,increase in dopa compared to placebo,dopamine (dopa) [5]; old rats,32.7%
same,increase in dopa compared to theobromine,dopamine (dopa) [5]; old rats,2.8%
same,increase in dopa compared to theophylline,dopamine (dopa) [5]; old rats,4.2%
same,dopamine (dopa) concentration,dopamine (dopa) [5]; young rats,580.22 ± 5.33 ng/L
same,increase in dopa compared to alpha-GPC,dopamine (dopa) [5]; young rats,3.0%
same,increase in dopa compared to placebo,dopamine (dopa) [5]; young rats,23.7%
same,increase in dopa compared to theobromine,dopamine (dopa) [5]; young rats,5.0%
same,increase in dopa compared to theophylline,dopamine (dopa) [5]; young rats,6.7%
same,escape latency,[6]; old rats (16-month-old),39.00 ± 1.90 s
same,decrease of escape latency compared to L-Theanine,[6]; old rats,12.7%
same,decrease of escape latency compared to control,[6]; old rats,33.7%
same,escape latency,[6]; young rats (8-week-old),32.50 ± 1.38 s
same,decrease of escape latency compared to L-Theanine,[6]; young rats,15.2%
same,decrease of escape latency compared to control,[6]; young rats,40%
same,glutathione (GSH) level,glutathione (GSH) [7]; old rats,25.57 ± 0.80 µg/mL
same,increase in GSH compared to L-Theanine,glutathione (GSH) [7]; old rats,7.1%
same,increase in GSH compared to placebo,glutathione (GSH) [7]; old rats,62.1%
same,glutathione (GSH) level,glutathione (GSH) [7]; young rats,32.57 ± 0.84 µg/mL
same,increase in GSH compared to L-Theanine,glutathione (GSH) [7]; young rats,2.6%
same,increase in GSH compared to placebo,glutathione (GSH) [7]; young rats,64.1%
same,dopamine (dopa) concentration,dopamine (dopa) [8]; old rats,516.85 ± 4.43 ng/L
same,increase in dopa compared to L-Theanine,dopamine (dopa) [8]; old rats,9.3%
same,increase in dopa compared to placebo,dopamine (dopa) [8]; old rats,32.7%
same,dopamine (dopa) concentration,dopamine (dopa) [8]; young rats,580.22 ± 5.33 ng/L
same,increase in dopa compared to L-Theanine,dopamine (dopa) [8]; young rats,9.8%
same,increase in dopa compared to placebo,dopamine (dopa) [8]; young rats,23.7%
same,escape latency,[9]; old rats (16-month-old),39.00 ± 1.90 s
same,decrease of escape latency compared to alpha-GPC,[9]; old rats,2.1%
same,decrease of escape latency compared to control,[9]; old rats,33.7%
same,decrease of escape latency compared to theobromine,[9]; old rats,7.9%
same,decrease of escape latency compared to theophylline,[9]; old rats,11.0%
same,escape latency,[9]; young rats (8-week-old),32.50 ± 1.38 s
same,decrease of escape latency compared to alpha-GPC,[9]; young rats,6.7%
same,decrease of escape latency compared to control,[9]; young rats,40%
same,decrease of escape latency compared to theobromine,[9]; young rats,13.7%
same,decrease of escape latency compared to theophylline,[9]; young rats,14.5%
same,acetylcholine (Ach) concentration,acetylcholine (Ach) [10]; old rats,59.78±2.61 U/mL
same,increase in Ach compared to L-Theanine,acetylcholine (Ach) [10]; old rats,7.0%
same,increase in Ach compared to placebo,acetylcholine (Ach) [10]; old rats,23.3%
same,acetylcholine (Ach) concentration,acetylcholine (Ach) [10]; young rats,66.83±2.38 U/mL
same,increase in Ach compared to L-Theanine,acetylcholine (Ach) [10]; young rats,6.4%
same,increase in Ach compared to placebo,acetylcholine (Ach) [10]; young rats,23.9%
same,glutathione (GSH) level,glutathione (GSH) [11]; old rats,25.57 ± 0.80 µg/mL
same,increase in GSH compared to alpha-GPC,glutathione (GSH) [11]; old rats,3.4%
same,increase in GSH compared to placebo,glutathione (GSH) [11]; old rats,62.1%
same,increase in GSH compared to theobromine,glutathione (GSH) [11]; old rats,4.2%
same,increase in GSH compared to theophylline,glutathione (GSH) [11]; old rats,5.5%
same,glutathione (GSH) level,glutathione (GSH) [11]; young rats,32.57 ± 0.84 µg/mL
same,increase in GSH compared to alpha-GPC,glutathione (GSH) [11]; young rats,2.6%
same,increase in GSH compared to placebo,glutathione (GSH) [11]; young rats,64.1%
same,increase in GSH compared to theobromine,glutathione (GSH) [11]; young rats,3.9%
same,increase in GSH compared to theophylline,glutathione (GSH) [11]; young rats,9.4%
same,BDNF,[12]; old rats,842.68 ± 6.26 pg/mL
same,increase in BDNF compared to alpha-GPC,[12]; old rats,1.5%
same,increase in BDNF compared to placebo,[12]; old rats,18.1%
same,increase in BDNF compared to theobromine,[12]; old rats,3.1%
same,increase in BDNF compared to theophylline,[12]; old rats,3.8%
same,BDNF,[12]; young rats,917.05 ± 5.21 pg/mL
same,increase in BDNF compared to alpha-GPC,[12]; young rats,4.0%
same,increase in BDNF compared to placebo,[12]; young rats,22.7%
same,increase in BDNF compared to theobromine,[12]; young rats,5.4%
same,increase in BDNF compared to theophylline,[12]; young rats,4.9%
"Cn1cnc2c1c(=O)[nH]c(=O)n2C [theobromine, reference compound]",acetylcholine (Ach) concentration,acetylcholine (Ach) [2]; old rats,56.67±1.32 U/mL
same,acetylcholine (Ach) concentration,acetylcholine (Ach) [2]; young rats,64.28±0.88 U/mL
same,dopamine (dopa) concentration,dopamine (dopa) [5]; old rats,503.03 ± 9.29 ng/L
same,dopamine (dopa) concentration,dopamine (dopa) [5]; young rats,552.73 ± 10.42 ng/L
same,escape latency,[9]; old rats (16-month-old),42.33 ± 1.63 s
same,escape latency,[9]; young rats (8-week-old),37.67 ± 2.07 s
same,glutathione (GSH) level,glutathione (GSH) [11]; old rats,24.53 ± 0.54 µg/mL
same,glutathione (GSH) level,glutathione (GSH) [11]; young rats,31.28 ± 0.78 µg/mL
"Cn1c(=O)c2[nH]cnc2n(C)c1=O [theophylline, reference compound]",acetylcholine (Ach) concentration,acetylcholine (Ach) [2]; old rats,55.33±1.05 U/mL
same,acetylcholine (Ach) concentration,acetylcholine (Ach) [2]; young rats,63.89±1.64 U/mL
same,dopamine (dopa) concentration,dopamine (dopa) [5]; old rats,495.82 ± 10.86 ng/L
same,dopamine (dopa) concentration,dopamine (dopa) [5]; young rats,543.78 ± 6.11 ng/L
same,escape latency,[9]; old rats (16-month-old),43.83 ± 1.47 s
same,escape latency,[9]; young rats (8-week-old),38.00 ± 1.90 s
same,glutathione (GSH) level,glutathione (GSH) [11]; old rats,24.23 ± 0.63 µg/mL
same,glutathione (GSH) level,glutathione (GSH) [11]; young rats,29.78 ± 1.07 µg/mL

# Source: US12667574B2, “Paraxanthine-based bioactive composition and method of use thereof” (PX ING, LLC, priority 2021, dated 2026)
